In patent EP4790066A1, “GLP-1R/GIPR/GCGR TRIPLE AGONIST ANALOGUE AND USE THEREOF” (Shenzhen Bay Laboratory, priority 2023, dated 2025):

Columns and labels:
Format in all cases: cell-based
GLP-1R [1] = biological target: T1, GLP-1R (Homo sapiens, UniProt P43220); assay: CreLuc method (CRE-luciferase reporter), HEK293/pGM-CREB-L-Luc/GLP-1R pool; details: 6 h incubation, read-out: EC50 (pM) for each receptor GLP-1R
T1 construct: expressed in transfected cells
Outline: (§1)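 Stable HEK293 pools co-expressing each receptor with a CRE-luciferase reporter were plated at 20,000 cells/well in freestyle medium and treated with compound dilution series for 6 h at 37 °C. Luminescence was read with ONE-GLO to derive EC50.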

GLP-1R [2] = biological target: T1, GLP-1R; assay: cAMP method (HTRF cAMP detection kit), HEK293/pGM-CREB-L-Luc/GLP-1 pool; details: read-out: EC50 (pM) for each receptor GLP-1R
Experimental: 2. Insulinotropic analogues can bind to target receptors on the cell membrane, activate the receptors, and induce release. The activity of the test substance can be determined using the HTRF method with a cAMP detection kit. Therefore, the cAMP method can be used to detect the target peptide derivatives (or polypeptide derivatives, i.e., TG1-TG86) prepared in Example 1 and Example 2. […] The test cell line was selected, treated with cAMP-specific trypsin for digestion. 3 mL of serum-free DMEM culture medium was added, and the cells were pipetted, resuspended, and counted. 5 µL of IBMX (prepared with serum-free DMEM medium, 0.5 mM) and test cells (5 µL/7500 cells/well) were added in a 384-well plate sequentially. The plate was incubated at 37°C under 5% CO2 for 30 min, followed by the addition of cAMP-d2 (5 µL, 1x) and Anti-cAMP-Cryptate (5 µL, 1x). The mixture was kept at room temperature for 1 h, after which the HTRF value was measured using a chemiluminescent microplate reader, and the determination result was recorded. […] Table 4: EC50 values for target peptide derivatives

GIPR [3] = biological target: T2, GIPR (Homo sapiens, UniProt P48546); assay: CreLuc method (CRE-luciferase reporter), HEK293/pGM-CREB-L-Luc/GIPR pool; details: 6 h incubation, read-out: EC50 (pM) for each receptor GIPR
T2 construct: expressed in transfected cells
T2 sequence (P48546 22-466): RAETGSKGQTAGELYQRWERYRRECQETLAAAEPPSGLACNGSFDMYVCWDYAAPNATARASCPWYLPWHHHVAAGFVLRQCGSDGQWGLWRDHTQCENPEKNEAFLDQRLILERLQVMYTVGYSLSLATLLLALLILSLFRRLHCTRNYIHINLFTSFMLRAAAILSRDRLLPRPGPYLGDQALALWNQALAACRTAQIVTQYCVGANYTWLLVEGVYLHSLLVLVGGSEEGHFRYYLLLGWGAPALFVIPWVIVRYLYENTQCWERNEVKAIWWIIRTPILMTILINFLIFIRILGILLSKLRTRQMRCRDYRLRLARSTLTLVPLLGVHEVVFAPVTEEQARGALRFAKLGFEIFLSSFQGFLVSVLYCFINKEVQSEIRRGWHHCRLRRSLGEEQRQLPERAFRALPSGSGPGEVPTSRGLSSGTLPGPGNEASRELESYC
Outline: as §1

GCGR [4] = biological target: T3, GCGR (Homo sapiens, UniProt P47871); assay: CreLuc method (CRE-luciferase reporter), 293HEK/pGM-CREB-L-Luc/GCGR pool; details: 6 h incubation, read-out: EC50 (pM) for each receptor GCGR
T3 construct: expressed in transfected cells
T3 sequence (P47871 26-477, species assumed): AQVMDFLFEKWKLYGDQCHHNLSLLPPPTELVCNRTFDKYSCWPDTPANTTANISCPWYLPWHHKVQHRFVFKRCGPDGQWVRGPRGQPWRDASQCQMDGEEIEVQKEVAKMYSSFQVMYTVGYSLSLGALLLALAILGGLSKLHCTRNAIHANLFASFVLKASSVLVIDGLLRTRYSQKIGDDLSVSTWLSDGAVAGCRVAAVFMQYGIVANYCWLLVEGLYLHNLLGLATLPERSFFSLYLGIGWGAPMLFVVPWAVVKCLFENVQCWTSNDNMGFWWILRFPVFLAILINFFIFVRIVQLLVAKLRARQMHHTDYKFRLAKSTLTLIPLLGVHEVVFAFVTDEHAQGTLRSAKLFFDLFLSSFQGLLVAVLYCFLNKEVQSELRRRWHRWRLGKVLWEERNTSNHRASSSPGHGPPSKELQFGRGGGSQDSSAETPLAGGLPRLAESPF
Outline: as §1

GCGR [5] = biological target: T3, GCGR; assay: cAMP method (HTRF cAMP detection kit), HEK293/pGM-CREB-L-Luc/GCG pool; details: read-out: EC50 (pM) for each receptor GCGR
GIPR [6] = biological target: T2, GIPR; assay: cAMP method (HTRF cAMP detection kit), HEK293/pGM-CREB-L-Luc/GIP pool; details: read-out: EC50 (pM) for each receptor GIPR

T1 sequence (P43220 24-463, species assumed): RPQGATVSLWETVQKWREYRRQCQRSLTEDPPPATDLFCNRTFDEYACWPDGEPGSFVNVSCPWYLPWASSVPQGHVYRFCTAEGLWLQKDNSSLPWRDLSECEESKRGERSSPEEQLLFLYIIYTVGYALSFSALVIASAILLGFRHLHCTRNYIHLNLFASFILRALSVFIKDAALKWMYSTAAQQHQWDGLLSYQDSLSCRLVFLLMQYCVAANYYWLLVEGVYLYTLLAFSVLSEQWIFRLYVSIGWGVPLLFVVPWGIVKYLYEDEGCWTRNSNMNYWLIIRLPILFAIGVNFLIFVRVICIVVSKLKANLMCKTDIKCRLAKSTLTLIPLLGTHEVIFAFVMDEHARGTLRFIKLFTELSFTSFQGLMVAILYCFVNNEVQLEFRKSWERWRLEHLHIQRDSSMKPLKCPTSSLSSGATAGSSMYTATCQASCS

| Structure (SMILES) | EC50 (GLP-1R [1]) | EC50 (GLP-1R [2]) | EC50 (GIPR [3]) | EC50 (GCGR [4]) | EC50 (GCGR [5]) | EC50 (GIPR [6]) |
| --- | --- | --- | --- | --- | --- | --- |
| CC[C@H](C)[C@@H]1NC(=O)[C@H](Cc2ccccc2)NC(=O)[C@@H](NC(=O)C(C)(C)NC(=O)[C@H](CCC(N)=O)NC(=O)[C@H](C)NC(=O)[C@H](CCCCNC(C)=O)NC(=O)[C@H](CCCCN)NC(=O)[C@H](CC(=O)O)NC(=O)[C@H](CC(C)C)NC(=O)[C@](C)(CC(C)C)NC(=O)[C@@H](NC(=O)[C@H](CO)NC(=O)[C@H](Cc2ccc(O)cc2)NC(=O)[C@H](CC(=O)O)NC(=O)[C@H](CO)NC(=O)[C@@H](NC(=O)[C@H](Cc2ccccc2)NC(=O)[C@@H](NC(=O)CNC(=O)[C@H](CCC(N)=O)NC(=O)C(C)(C)NC(=O)[C@@H](N)Cc2c[nH]cn2)[C@@H](C)O)[C@@H](C)O)[C@@H](C)CC)CSCC(=O)NCCN(C(=O)CCC(=O)NCCOCCOCC(=O)NCCOCCOCC(=O)NCCCC[C@H](NC(=O)CCCCCCCCCCCCCCCCCCC(=O)O)C(=O)O)CCNC(=O)CSC[C@@H](C(=O)NCC(=O)NCC(=O)N2CCC[C@H]2C(=O)N[C@@H](CO)C(=O)N[C@@H](CO)C(=O)NCC(=O)N[C@@H](C)C(=O)N2CCC[C@H]2C(=O)N2CCC[C@H]2C(=O)N2CCC[C@H]2C(=O)N[C@@H](CO)C(N)=O)NC(=O)[C@H](CC(C)C)NC(=O)[C@H](CC(C)C)NC(=O)[C@H](Cc2ccc(O)cc2)NC(=O)[C@H](CCC(=O)O)NC1=O [TG18] | 66.9 pM | 1.4 pM | 25.9 pM | 802 pM | 94.4 pM | 1.7 pM |
| CC[C@H](C)[C@@H]1NC(=O)[C@H](Cc2ccccc2)NC(=O)[C@@H](NC(=O)C(C)(C)NC(=O)[C@H](CCC(N)=O)NC(=O)[C@H](C)NC(=O)[C@H](CCC(N)=O)NC(=O)[C@H](CCCCN)NC(=O)[C@H](CC(=O)O)NC(=O)[C@H](CC(C)C)NC(=O)[C@](C)(CC(C)C)NC(=O)[C@@H](NC(=O)[C@H](CO)NC(=O)[C@H](Cc2ccc(O)cc2)NC(=O)[C@H](CC(=O)O)NC(=O)[C@H](CO)NC(=O)[C@@H](NC(=O)[C@H](Cc2ccccc2)NC(=O)[C@@H](NC(=O)CNC(=O)[C@H](CCC(N)=O)NC(=O)C(C)(C)NC(=O)[C@@H](N)Cc2ccc(O)cc2)[C@@H](C)O)[C@@H](C)O)[C@@H](C)CC)CSCC(=O)NCCN(C(=O)CCC(=O)NCCOCCOCC(=O)NCCOCCOCC(=O)NCCCC[C@H](NC(=O)CCCCCCCCCCCCCCCCCCC(=O)O)C(=O)O)CCNC(=O)CSC[C@@H](C(=O)NCC(=O)NCC(=O)N2CCC[C@H]2C(=O)N[C@@H](CO)C(=O)N[C@@H](CO)C(=O)NCC(=O)N[C@@H](C)C(=O)N2CCC[C@H]2C(=O)N2CCC[C@H]2C(=O)N2CCC[C@H]2C(=O)N[C@@H](CO)C(N)=O)NC(=O)[C@H](CC(C)C)NC(=O)[C@H](CC(C)C)NC(=O)[C@H](Cc2ccc(O)cc2)NC(=O)[C@H](CCC(=O)O)NC1=O [TG30] | 47.8 pM | 2.5 pM | 45.3 pM | 347 pM | 28.7 pM | 3.2 pM |
| CC[C@H](C)[C@@H]1NC(=O)[C@H](Cc2ccccc2)NC(=O)[C@@H](NC(=O)C(C)(C)NC(=O)[C@H](CCC(N)=O)NC(=O)[C@H](C)NC(=O)[C@H](CCCCNC(C)=O)NC(=O)[C@H](CCCCN)NC(=O)[C@H](CC(=O)O)NC(=O)[C@H](CC(C)C)NC(=O)[C@](C)(CC(C)C)NC(=O)[C@@H](NC(=O)[C@H](CO)NC(=O)[C@H](Cc2ccc(O)cc2)NC(=O)[C@H](CC(=O)O)NC(=O)[C@H](CO)NC(=O)[C@@H](NC(=O)[C@H](Cc2ccccc2)NC(=O)[C@@H](NC(=O)CNC(=O)[C@H](CCC(N)=O)NC(=O)C2(NC(=O)[C@@H](N)Cc3ccc(O)cc3)CCC2)[C@@H](C)O)[C@@H](C)O)[C@@H](C)CC)CSCC(=O)NCCN(C(=O)CCC(=O)NCCOCCOCC(=O)NCCOCCOCC(=O)NCCCC[C@H](NC(=O)CCCCCCCCCCCCCCCCCCC(=O)O)C(=O)O)CCNC(=O)CSC[C@@H](C(=O)NCC(=O)NCC(=O)N2CCC[C@H]2C(=O)N[C@@H](CO)C(=O)N[C@@H](CO)C(=O)NCC(=O)N[C@@H](C)C(=O)N2CCC[C@H]2C(=O)N2CCC[C@H]2C(=O)N2CCC[C@H]2C(=O)N[C@@H](CO)C(N)=O)NC(=O)[C@H](CC(C)C)NC(=O)[C@H](CC(C)C)NC(=O)[C@H](Cc2ccc(O)cc2)NC(=O)[C@H](CCC(=O)O)NC1=O [TG43] | 57.1 pM | 1.3 pM | 13.6 pM | 78.7 pM | 3.8 pM | 6.4 pM |
